Measurements from ChEMBL document CHEMBL1909046, “DrugMatrix in vitro pharmacology data”.

Key:
[1] = biological target: Sodium-dependent noradrenaline transporter (Homo sapiens, UniProt P23975); assay: DRUGMATRIX: Norepinephrine Transporter radioligand binding (ligand: [125I] RTI-55); format: cell membranes, MDCK, Membrane; settings: Not Active = under 50% inhibition at 10 µM
[2] = biological target: 5-hydroxytryptamine receptor 2B (Homo sapiens, UniProt P41595); format: cell membranes, CHO-K1, Membrane; settings: cho-k1; further: in other assays of this panel Not Active means under 50% inhibition at 10 µM
Chain of 5-hydroxytryptamine receptor 2B (P41595 whole entry): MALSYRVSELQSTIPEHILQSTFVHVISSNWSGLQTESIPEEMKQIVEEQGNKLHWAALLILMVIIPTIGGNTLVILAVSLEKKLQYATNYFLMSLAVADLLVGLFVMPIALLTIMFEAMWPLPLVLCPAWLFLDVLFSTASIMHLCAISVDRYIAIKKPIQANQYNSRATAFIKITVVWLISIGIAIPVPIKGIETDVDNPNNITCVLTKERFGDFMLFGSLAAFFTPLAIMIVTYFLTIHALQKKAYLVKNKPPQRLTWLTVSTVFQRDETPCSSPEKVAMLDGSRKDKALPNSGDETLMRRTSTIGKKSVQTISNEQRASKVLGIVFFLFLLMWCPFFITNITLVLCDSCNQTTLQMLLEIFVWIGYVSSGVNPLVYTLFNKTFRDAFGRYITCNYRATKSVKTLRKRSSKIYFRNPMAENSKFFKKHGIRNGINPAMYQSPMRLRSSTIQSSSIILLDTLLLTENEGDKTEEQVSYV

Progesterone receptor = biological target: T1, Progesterone receptor (Bos taurus, UniProt Q690N0); assay: DRUGMATRIX: Progesterone radioligand binding (ligand: [3H] R-5020); format: tissue-based, Uterus; settings: Not Active = under 50% inhibition at 10 µM
T1 sequence (Q690N0 whole entry): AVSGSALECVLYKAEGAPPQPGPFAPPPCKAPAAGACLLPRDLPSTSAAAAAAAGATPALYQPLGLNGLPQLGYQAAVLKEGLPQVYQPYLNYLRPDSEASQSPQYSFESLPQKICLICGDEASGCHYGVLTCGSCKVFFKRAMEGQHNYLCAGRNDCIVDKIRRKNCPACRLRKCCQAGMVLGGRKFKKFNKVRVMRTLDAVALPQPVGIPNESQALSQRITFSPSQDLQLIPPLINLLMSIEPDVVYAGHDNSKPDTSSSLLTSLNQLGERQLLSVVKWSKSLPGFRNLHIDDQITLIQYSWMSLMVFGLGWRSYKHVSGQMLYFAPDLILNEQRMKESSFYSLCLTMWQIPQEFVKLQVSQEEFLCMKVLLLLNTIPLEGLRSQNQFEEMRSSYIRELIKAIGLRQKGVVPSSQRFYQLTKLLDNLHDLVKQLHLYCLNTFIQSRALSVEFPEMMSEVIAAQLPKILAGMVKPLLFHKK

Glucocorticoid receptor = biological target: T2, Glucocorticoid receptor (Homo sapiens, UniProt P04150); settings: hela s3; further: in other assays of this panel Not Active means under 50% inhibition at 10 µM
T2 sequence (P04150 whole entry): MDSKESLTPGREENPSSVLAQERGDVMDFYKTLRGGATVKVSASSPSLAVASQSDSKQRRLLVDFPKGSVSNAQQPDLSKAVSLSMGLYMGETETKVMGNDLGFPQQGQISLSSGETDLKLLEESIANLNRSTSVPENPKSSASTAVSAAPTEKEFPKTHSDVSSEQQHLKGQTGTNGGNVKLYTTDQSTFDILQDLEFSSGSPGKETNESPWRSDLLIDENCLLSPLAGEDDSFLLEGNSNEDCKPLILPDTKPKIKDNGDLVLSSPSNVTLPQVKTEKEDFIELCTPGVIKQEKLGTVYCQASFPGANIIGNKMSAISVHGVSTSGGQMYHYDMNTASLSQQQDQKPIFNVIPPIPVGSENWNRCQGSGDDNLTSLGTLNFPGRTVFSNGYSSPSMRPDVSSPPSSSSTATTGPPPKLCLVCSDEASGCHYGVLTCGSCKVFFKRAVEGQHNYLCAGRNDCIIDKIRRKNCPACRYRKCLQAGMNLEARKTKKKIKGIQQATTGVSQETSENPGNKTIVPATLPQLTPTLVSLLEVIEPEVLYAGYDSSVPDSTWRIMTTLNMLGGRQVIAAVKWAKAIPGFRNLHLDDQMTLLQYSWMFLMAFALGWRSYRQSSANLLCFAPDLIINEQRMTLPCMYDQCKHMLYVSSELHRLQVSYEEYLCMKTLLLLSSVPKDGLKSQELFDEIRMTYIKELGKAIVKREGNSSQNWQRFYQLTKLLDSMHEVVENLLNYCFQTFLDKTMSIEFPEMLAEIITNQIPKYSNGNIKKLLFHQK

Cytochrome P450 1A2 = biological target: T3, Cytochrome P450 1A2 (Homo sapiens, UniProt P05177); settings: bti-tn-5b1-4; further: in other assays of this panel Not Active means under 50% inhibition at 10 µM
T3 sequence (P05177 whole entry): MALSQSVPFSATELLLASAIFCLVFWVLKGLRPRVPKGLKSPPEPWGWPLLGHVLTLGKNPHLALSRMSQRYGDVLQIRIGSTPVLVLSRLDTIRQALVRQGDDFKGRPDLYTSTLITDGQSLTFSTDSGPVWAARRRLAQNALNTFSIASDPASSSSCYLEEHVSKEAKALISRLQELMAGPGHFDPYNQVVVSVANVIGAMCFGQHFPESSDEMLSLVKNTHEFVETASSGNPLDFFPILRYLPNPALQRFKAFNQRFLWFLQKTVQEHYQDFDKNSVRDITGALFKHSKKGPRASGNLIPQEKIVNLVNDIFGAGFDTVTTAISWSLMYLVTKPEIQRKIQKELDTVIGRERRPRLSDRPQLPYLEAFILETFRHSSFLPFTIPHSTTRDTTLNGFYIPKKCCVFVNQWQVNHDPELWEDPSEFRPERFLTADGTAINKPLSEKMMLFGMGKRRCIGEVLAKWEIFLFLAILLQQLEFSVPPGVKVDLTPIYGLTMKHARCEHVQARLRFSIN

Cytochrome P450 2C19 = Cytochrome P450 2C19 (Homo sapiens, UniProt P33261); settings: bti-tn-5b1-4; further: in other assays of this panel Not Active means under 50% inhibition at 10 µM
Chain of Cytochrome P450 2C19 (P33261 whole entry): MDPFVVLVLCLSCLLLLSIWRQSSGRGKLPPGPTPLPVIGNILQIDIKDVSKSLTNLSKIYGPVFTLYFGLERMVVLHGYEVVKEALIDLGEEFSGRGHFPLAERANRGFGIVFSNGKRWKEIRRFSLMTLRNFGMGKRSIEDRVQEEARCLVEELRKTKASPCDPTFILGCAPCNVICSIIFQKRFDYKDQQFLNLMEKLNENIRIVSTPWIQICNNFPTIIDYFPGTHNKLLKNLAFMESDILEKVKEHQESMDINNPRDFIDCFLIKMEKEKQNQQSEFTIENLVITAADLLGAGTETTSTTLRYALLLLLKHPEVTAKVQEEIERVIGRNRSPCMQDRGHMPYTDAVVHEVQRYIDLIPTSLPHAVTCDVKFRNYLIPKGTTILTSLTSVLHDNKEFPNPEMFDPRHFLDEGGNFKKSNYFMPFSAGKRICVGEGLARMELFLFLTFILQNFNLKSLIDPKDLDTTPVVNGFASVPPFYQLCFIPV

Cytochrome P450 2E1 = Cytochrome P450 2E1 (Homo sapiens, UniProt P05181); settings: bti-tn-5b1-4; further: in other assays of this panel Not Active means under 50% inhibition at 10 µM
Chain of Cytochrome P450 2E1 (P05181 whole entry): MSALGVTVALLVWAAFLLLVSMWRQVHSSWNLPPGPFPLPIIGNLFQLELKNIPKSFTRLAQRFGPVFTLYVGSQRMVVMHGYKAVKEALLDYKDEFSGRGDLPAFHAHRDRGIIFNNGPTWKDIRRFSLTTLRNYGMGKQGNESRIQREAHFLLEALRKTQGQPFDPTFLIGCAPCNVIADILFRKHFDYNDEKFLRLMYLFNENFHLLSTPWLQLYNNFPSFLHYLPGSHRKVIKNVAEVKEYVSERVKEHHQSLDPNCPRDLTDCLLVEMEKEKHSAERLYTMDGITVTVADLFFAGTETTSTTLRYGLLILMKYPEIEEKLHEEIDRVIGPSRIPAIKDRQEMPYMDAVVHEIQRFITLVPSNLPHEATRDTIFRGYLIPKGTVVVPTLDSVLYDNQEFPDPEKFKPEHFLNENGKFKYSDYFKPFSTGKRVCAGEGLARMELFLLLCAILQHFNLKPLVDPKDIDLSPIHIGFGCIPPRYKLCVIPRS

Chain of Sodium-dependent noradrenaline transporter (P23975 whole entry): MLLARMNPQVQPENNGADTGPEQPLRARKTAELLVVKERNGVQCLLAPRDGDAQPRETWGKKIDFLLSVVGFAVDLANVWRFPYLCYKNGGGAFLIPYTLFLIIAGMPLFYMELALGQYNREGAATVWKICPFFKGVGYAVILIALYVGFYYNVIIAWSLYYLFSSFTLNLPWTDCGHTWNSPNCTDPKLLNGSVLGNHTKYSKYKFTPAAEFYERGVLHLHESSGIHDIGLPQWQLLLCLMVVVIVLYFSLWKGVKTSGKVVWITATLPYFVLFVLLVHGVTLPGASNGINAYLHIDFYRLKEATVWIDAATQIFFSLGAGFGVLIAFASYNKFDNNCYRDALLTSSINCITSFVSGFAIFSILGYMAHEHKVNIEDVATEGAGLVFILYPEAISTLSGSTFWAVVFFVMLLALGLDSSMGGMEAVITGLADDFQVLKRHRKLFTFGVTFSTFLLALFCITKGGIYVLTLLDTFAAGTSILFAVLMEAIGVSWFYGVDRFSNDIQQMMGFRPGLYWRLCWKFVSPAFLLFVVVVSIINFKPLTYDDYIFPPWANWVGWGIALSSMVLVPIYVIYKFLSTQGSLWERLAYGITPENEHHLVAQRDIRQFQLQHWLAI

Structure (SMILES)	IC50 ([1]; mdck)	IC50 [2]	IC50 (Progesterone receptor)	IC50 (Glucocorticoid receptor)	IC50 (Cytochrome P450 1A2)	Ki (Cytochrome P450 1A2)	IC50 (Cytochrome P450 2C19)	Ki (Cytochrome P450 2C19)	IC50 (Cytochrome P450 2E1)	Ki (Cytochrome P450 2E1)	IC50 ([1]; read-out: IC50) [µM]	Ki ([1]; read-out: Ki) [µM]
CC[C@@]1(O)C(=O)OCc2c1cc1n(c2=O)Cc2cc3c(CN(C)C)c(O)ccc3nc2-1 [TOPOTECAN]	Not Active	Not Active	Not Active	Not Active	Not Active	Not Active	Not Active	Not Active	Not Active	Not Active		
Nc1nc(N)c2nc(-c3ccccc3)c(N)nc2n1	Not Active	Not Active	Not Active	Not Active	Not Active	Not Active	Not Active	Not Active	Not Active	Not Active		
CC[C@H](C)[C@@H](CO[C@@H](Cc1ccccc1)C(=O)N[C@@H](CCS(C)(=O)=O)C(=O)OC(C)C)NC[C@@H](N)CS	Not Active	Not Active	Not Active	Not Active	Not Active	Not Active	Not Active	Not Active	Not Active	Not Active		
CO[C@@]12[C@H](COC(N)=O)C3=C(C(=O)C(C)=C(N)C3=O)N1C[C@@H]1N[C@@H]12 [MITOMYCIN]	Not Active	Not Active	Not Active	Not Active	Not Active	Not Active	Not Active	Not Active	Not Active	Not Active		
CCOC(=O)C1=C(C)NC(C)=C(C(=O)OCC)C1c1ccccc1/C=C/C(=O)OC(C)(C)C [LACIDIPINE]		Not Active	Not Active	Not Active	Not Active	Not Active			Not Active	Not Active	5.73	5.69
O=C(O)c1cc(/N=N/c2ccc(S(=O)(=O)Nc3ccccn3)cc2)ccc1O [SULFASALAZINE]	Not Active	Not Active	Not Active	Not Active	Not Active	Not Active	Not Active	Not Active	Not Active	Not Active		
Cc1ccc(Cl)c(Nc2ccccc2C(=O)O)c1Cl [MECLOFENAMIC ACID]	Not Active	Not Active	Not Active	Not Active	Not Active	Not Active	Not Active	Not Active	Not Active	Not Active		
CC(C)(C)NC[C@H](O)COc1cccc2c1CCCC2=O [LEVOBUNOLOL]	Not Active	Not Active	Not Active	Not Active	Not Active	Not Active	Not Active	Not Active	Not Active	Not Active		
Cc1cnc(NC(=O)C2=C(O)c3ccccc3S(=O)(=O)N2C)s1 [MELOXICAM]	Not Active	Not Active	Not Active	Not Active	Not Active	Not Active	Not Active	Not Active	Not Active	Not Active		
O=C1CC[C@@]2(O)[C@H]3Cc4ccc(O)c5c4[C@@]2(CCN3CC2CC2)[C@H]1O5 [NALTREXONE]	Not Active	Not Active	Not Active	Not Active	Not Active	Not Active	Not Active	Not Active	Not Active	Not Active		
